Article PMC5863483, “Low HLA binding of diabetes-associated CD8+ T-cell epitopes is increased by post translational modifications” (BMC Immunology, 2018)
pIC50: −log10 of the molar value. *1 amine or outer side, *2 acyl side, *3 side chain or, on linkers, in order; H or OH if unused. Where a SMILES comes first, the peptide text is derived from it. [ ]: non-standard residue; d: D form. Tyr(3-Cl) = N[C@@H](Cc1ccc(O)c(Cl)c1)C(=O)O; γGlu = O=C(O)[C@H](CCC(=O)[*:2])N[*:1]; βAsp = O=C(O)[C@H](CC(=O)[*:2])N[*:1]; Cya = N[C@@H](CS(=O)(=O)O)C(=O)O; Cit = NC(=O)NCCC[C@H](N)C(=O)O

Each compound was assayed against HLA-A*02:01 (Homo sapiens, UniProt P04439, D140Y/D185E/D98H/E176V/E277Q/G131W/G231S/I119V/I121R/I166T/I218V/L300P/L318F/N151K/N90K/P208A/P217A/Q86G/Q94H/R138H/R169H/T345S) (assay: HLA-peptide competition binding assay, A*02:01). Details: not given.

| Structure (SMILES) | pIC50 |
| --- | --- |
| CSCC[C@H](NC(=O)[C@@H](N)Cc1c[nH]c2ccccc12)C(=O)N[C@@H](CCCNC(N)=O)C(=O)N[C@@H](CC(C)C)C(=O)N[C@@H](CC(C)C)C(=O)N1CCC[C@H]1C(=O)N[C@@H](CC(C)C)C(=O)N[C@@H](CC(C)C)C(=O)N[C@@H](C)C(=O)N[C@@H](CC(C)C)C(=O)O [WMULLPLLAL] (H-WM[Cit]LLPLLAL-OH) | 6.51 |

Same assay, conditions: increase of A*02:01 binding of the modified peptide compared to the WT peptide

| Fold increase [fold] | Structure (SMILES) |
| --- | --- |
| 2.02 | CC(C)C[C@H](NC(=O)[C@H](C)NC(=O)[C@H](CCC(=O)O)NC(=O)[C@@H](NC(=O)[C@H](CC(C)C)NC(=O)[C@H](Cc1c[nH]cn1)NC(=O)[C@@H](N)CO)C(C)C)C(=O)N[C@@H](Cc1ccc(O)c(Cl)c1)C(=O)N[C@@H](CC(C)C)C(=O)N[C@H](C(=O)O)C(C)C [SHLVEALJLV] (H-SHLVEAL[Tyr(3-Cl)]LV-OH) |

Same assay, conditions: post-translationally modified insulin peptide; competition binding assay; a dash indicates IC50 >40,000 nM; read-out: A*02:01 binding (IC50 nM) Modified

| IC50 [nM] | Structure (SMILES) |
| --- | --- |
| > 40000 | CC(C)C[C@H](NC(=O)[C@H](Cc1c[nH]cn1)NC(=O)[C@H](CCC(N)=O)NC(=O)[C@@H](N)CC(N)=O)C(=O)N[C@@H](CS(=O)(=O)O)C(=O)NCC(=O)N[C@@H](CO)C(=O)N[C@@H](Cc1c[nH]cn1)C(=O)N[C@@H](CC(C)C)C(=O)N[C@H](C(=O)O)C(C)C [NQHLBGSHLV] (H-NQHL[Cya]GSHLV-OH; N-terminus and C-terminus assumed) |
| > 40000 | CC(C)C[C@H](NC(=O)[C@H](Cc1c[nH]cn1)NC(=O)[C@H](CO)NC(=O)CNC(=O)[C@H](CS(=O)(=O)O)NC(=O)[C@H](CC(C)C)NC(=O)[C@H](Cc1c[nH]cn1)NC(=O)[C@H](CCC(N)=O)NC(=O)[C@@H](N)CC(N)=O)C(=O)O [NQHLBGSHL] (H-NQHL[Cya]GSHL-OH; N-terminus and C-terminus assumed) |
| > 40000 | CC(C)C[C@H](NC(=O)[C@H](Cc1c[nH]cn1)NC(=O)CC[C@H](NC(=O)C[C@H](N)C(=O)O)C(=O)O)C(=O)N[C@@H](CS)C(=O)NCC(=O)N[C@@H](CO)C(=O)N[C@@H](Cc1c[nH]cn1)C(=O)N[C@@H](CC(C)C)C(=O)N[C@H](C(=O)O)C(C)C [OZHLCGSHLV] ({βAsp-γGlu}-HLCGSHLV-OH; N-terminus and C-terminus assumed) |
| > 40000 | CC(C)C[C@H](NC(=O)[C@H](Cc1c[nH]cn1)NC(=O)[C@H](CO)NC(=O)CNC(=O)[C@H](CS)NC(=O)[C@H](CC(C)C)NC(=O)[C@H](Cc1c[nH]cn1)NC(=O)CC[C@H](NC(=O)C[C@H](N)C(=O)O)C(=O)O)C(=O)O [OZHLCGSHL] ({βAsp-γGlu}-HLCGSHL-OH; N-terminus and C-terminus assumed) |
| > 40000 | C[C@H](NC(=O)[C@H](CCC(=O)O)NC(=O)[C@H](CCCNC(N)=O)NC(=O)[C@H](CCCNC(N)=O)NC(=O)[C@@H](NC(=O)[C@H](CCCCN)NC(=O)[C@@H]1CCCN1)[C@@H](C)O)C(=O)N[C@@H](CCC(=O)O)C(=O)N[C@@H](CC(=O)O)C(=O)O [PKTUUEAED] (H-PKT[Cit][Cit]EAED-OH; N-terminus and C-terminus assumed) |
| > 40000 | CC(C)C[C@H](NC(=O)[C@H](Cc1c[nH]cn1)NC(=O)[C@@H](N)CCC(N)=O)C(=O)N[C@@H](CS(=O)(=O)O)C(=O)NCC(=O)N[C@@H](CO)C(=O)N[C@@H](Cc1c[nH]cn1)C(=O)N[C@@H](CC(C)C)C(=O)N[C@H](C(=O)N[C@@H](CCC(=O)O)C(=O)O)C(C)C [QHLBGSHLVE] (H-QHL[Cya]GSHLVE-OH; N-terminus and C-terminus assumed) |
| > 40000 | CC[C@H](C)[C@H](NC(=O)CNC(=O)[C@H](CCCNC(N)=O)NC(=O)[C@H](CCCCN)NC(=O)[C@H](CCC(N)=O)NC(=O)[C@H](CC(C)C)NC(=O)[C@@H](N)CO)C(=O)N[C@H](C(=O)N[C@@H](CCC(=O)O)C(=O)O)C(C)C [SLQKUGIVE] (H-SLQK[Cit]GIVE-OH; N-terminus and C-terminus assumed) |
| > 40000 | C[C@H](NC(=O)[C@H](CCC(=O)O)NC(=O)[C@H](CCCNC(N)=O)NC(=O)[C@H](CCCNC(N)=O)NC(=O)[C@@H](NC(=O)[C@H](CCCCN)NC(=O)[C@@H]1CCCN1C(=O)[C@@H](N)[C@@H](C)O)[C@@H](C)O)C(=O)N[C@@H](CCC(=O)O)C(=O)N[C@@H](CC(=O)O)C(=O)O [TPKTUUEAED] (H-TPKT[Cit][Cit]EAED-OH; N-terminus and C-terminus assumed) |
| > 40000 | CC(C)[C@H](N)C(=O)N[C@@H](CS(=O)(=O)O)C(=O)NCC(=O)N[C@@H](CCC(=O)O)C(=O)N[C@@H](CCCNC(=N)N)C(=O)NCC(=O)N[C@@H](Cc1ccc(O)cc1)C(=O)N[C@@H](Cc1ccc(O)cc1)C(=O)N[C@@H](Cc1ccc(O)cc1)C(=O)N[C@H](C(=O)O)[C@@H](C)O [VBGERGYYYT] (H-V[Cya]GERGYYYT-OH; N-terminus and C-terminus assumed) |
| > 40000 | CC(C)[C@H](N)C(=O)N[C@@H](CS(=O)(=O)O)C(=O)NCC(=O)N[C@@H](CCC(=O)O)C(=O)N[C@@H](CCCNC(=N)N)C(=O)NCC(=O)N[C@@H](Cc1ccc(O)cc1)C(=O)N[C@@H](Cc1ccc(O)cc1)C(=O)N[C@@H](Cc1ccc(O)cc1)C(=O)O [VBGERGYYY] (H-V[Cya]GERGYYY-OH; N-terminus and C-terminus assumed) |
| > 40000 | CC(C)C[C@H](NC(=O)[C@H](Cc1c[nH]cn1)NC(=O)[C@H](CO)NC(=O)CNC(=O)[C@H](CS(=O)(=O)O)NC(=O)[C@H](CC(C)C)NC(=O)[C@H](Cc1c[nH]cn1)NC(=O)[C@H](CCC(N)=O)NC(=O)[C@H](CC(N)=O)NC(=O)[C@@H](N)C(C)C)C(=O)O [VNQHLBGSHL] (H-VNQHL[Cya]GSHL-OH; N-terminus and C-terminus assumed) |
| > 40000 | CC(C)C[C@H](NC(=O)[C@H](Cc1c[nH]cn1)NC(=O)[C@H](CCC(N)=O)NC(=O)[C@H](CC(N)=O)NC(=O)[C@@H](N)C(C)C)C(=O)N[C@@H](CS(=O)(=O)O)C(=O)NCC(=O)N[C@@H](CO)C(=O)N[C@@H](Cc1c[nH]cn1)C(=O)O [VNQHLBGSH] (H-VNQHL[Cya]GSH-OH; N-terminus and C-terminus assumed) |
| > 40000 | CC(C)C[C@H](NC(=O)[C@H](Cc1c[nH]cn1)NC(=O)[C@H](CO)NC(=O)CNC(=O)[C@H](CS)NC(=O)[C@H](CC(C)C)NC(=O)[C@H](Cc1c[nH]cn1)NC(=O)CC[C@H](NC(=O)C[C@H](NC(=O)[C@@H](N)C(C)C)C(=O)O)C(=O)O)C(=O)O [VOZHLCGSHL] (H-V[βAsp][γGlu]HLCGSHL-OH; N-terminus and C-terminus assumed) |
| > 40000 | CC(C)C[C@H](NC(=O)[C@H](Cc1c[nH]cn1)NC(=O)CC[C@H](NC(=O)C[C@H](NC(=O)[C@@H](N)C(C)C)C(=O)O)C(=O)O)C(=O)N[C@@H](CS)C(=O)NCC(=O)N[C@@H](CO)C(=O)N[C@@H](Cc1c[nH]cn1)C(=O)O [VOZHLCGSH] (H-V[βAsp][γGlu]HLCGSH-OH; N-terminus and C-terminus assumed) |
| > 40000 | CC(C)C[C@H](NC(=O)[C@H](Cc1c[nH]cn1)NC(=O)CC[C@H](N)C(=O)O)C(=O)N[C@@H](CS)C(=O)NCC(=O)N[C@@H](CO)C(=O)N[C@@H](Cc1c[nH]cn1)C(=O)N[C@@H](CC(C)C)C(=O)N[C@H](C(=O)N[C@@H](CCC(=O)O)C(=O)O)C(C)C [ZHLCGSHLVE] (γGlu-HLCGSHLVE-OH; N-terminus and C-terminus assumed) |
| > 40000 | CC(C)C[C@H](NC(=O)[C@H](Cc1c[nH]cn1)NC(=O)CC[C@H](N)C(=O)O)C(=O)N[C@@H](CS)C(=O)NCC(=O)N[C@@H](CO)C(=O)N[C@@H](Cc1c[nH]cn1)C(=O)N[C@@H](CC(C)C)C(=O)N[C@H](C(=O)O)C(C)C [ZHLCGSHLV] (γGlu-HLCGSHLV-OH; N-terminus and C-terminus assumed) |

Same assay, conditions: post-translationally modified insulin-derived peptide; radiolabeled ligand competition, purified MHC, two-day incubation, three or more independent experiments; read-out: A*02:01 binding, Modified

| pIC50 | Structure (SMILES) |
| --- | --- |
| 5.49 | CC(C)C[C@H](NC(=O)[C@@H](N)Cc1ccc(O)cc1)C(=O)N[C@H](C(=O)N[C@@H](CS(=O)(=O)O)C(=O)NCC(=O)N[C@@H](CCC(=O)O)C(=O)N[C@@H](CCCNC(=N)N)C(=O)NCC(=O)N[C@@H](Cc1ccc(O)cc1)C(=O)O)C(C)C [YLVBGERGY] (H-YLV[Cya]GERGY-OH) |

Same assay, conditions: read-out: A*02:01 binding (IC50 nM) Modified

| IC50 [nM] | Structure (SMILES) |
| --- | --- |
| 37900 | CC(C)C[C@H](NC(=O)[C@H](Cc1c[nH]cn1)NC(=O)[C@@H](N)CCC(N)=O)C(=O)N[C@@H](CS(=O)(=O)O)C(=O)NCC(=O)N[C@@H](CO)C(=O)N[C@@H](Cc1c[nH]cn1)C(=O)N[C@@H](CC(C)C)C(=O)N[C@H](C(=O)O)C(C)C [QHLBGSHLV] (H-QHL[Cya]GSHLV-OH) |
| 2420 | CC(C)C[C@H](NC(=O)[C@@H](N)Cc1ccc(O)cc1)C(=O)N[C@H](C(=O)N[C@@H](CS(=O)(=O)O)C(=O)NCC(=O)N[C@@H](CCC(=O)O)C(=O)N[C@@H](CCCNC(=N)N)C(=O)NCC(=O)N[C@@H](Cc1ccc(O)cc1)C(=O)N[C@@H](Cc1ccc(O)cc1)C(=O)O)C(C)C [YLVBGERGYY] (H-YLV[Cya]GERGYY-OH) |

Same assay, conditions: read-out: IC50 nM, target assay A*02:01

| IC50 [nM] | Structure (SMILES) |
| --- | --- |
| 7450 | CC[C@H](C)[C@H](NC(=O)[C@H](CO)NC(=O)[C@@H](NC(=O)[C@H](CS)NC(=O)[C@H](CS)NC(=O)[C@H](CCC(N)=O)NC(=O)[C@H](CCC(=O)O)NC(=O)[C@@H](NC(=O)[C@@H](NC(=O)CN)[C@@H](C)CC)C(C)C)[C@@H](C)O)C(=O)O [reference compound] (H-GIVEQCCTSI-OH) |
| 97 | CC[C@H](C)[C@H](NC(=O)[C@H](CC(N)=O)NC(=O)[C@H](C)NC(=O)[C@H](CC(C)C)NC(=O)[C@@H](N)CCCCN)C(=O)N[C@@H](CCC(N)=O)C(=O)N[C@@H](CS)C(=O)N[C@@H](CC(C)C)C(=O)N[C@@H](CS)C(=O)N[C@@H](CC(C)C)C(=O)O [reference compound] (H-KLANIQCLCL-OH) |
| 121 | CC[C@H](C)[C@H](NC(=O)[C@H](CC(N)=O)NC(=O)[C@H](C)NC(=O)[C@H](CC(C)C)NC(=O)[C@@H](N)CCCCN)C(=O)N[C@@H](CCC(N)=O)C(=O)N[C@@H](CS)C(=O)N1CCC[C@H]1C(=O)N[C@@H](CS)C(=O)N[C@@H](CC(C)C)C(=O)O [reference compound] (H-KLANIQCPCL-OH) |
